Measured values from patent US20240002326A1, “COMPOUNDS AND USE THEREOF IN METHODS OF TREATMENT” (The University of Queensland, priority 2016, published 2024).
Entries after “also recorded” stand apart in the source; their conditions may differ. *1 amine or outer side, *2 acyl side, *3 side chain or, on linkers, in order; H or OH if unused. Where a SMILES comes first, the peptide text is derived from it. Bridges are numbered along the chain shown (N, C = ends). Roman numbers before positions name the chains, in order. [ ]: non-standard residue; d: D form. Actinocin(9to1) = Cc1c2oc3c(C)ccc(C(=O)[*:1])c3nc-2c(C(=O)[*:2])c(N)c1=O; NMeV = CN[C@H](C(=O)O)C(C)C; Sar = CNCC(=O)O

Tests used:
SOX18[109] HMG fragment = SOX18[109] HMG fragment (Mus musculus (Mouse), UniProt P43680); assay: FP DNA-binding competition assay, SOX18[109] HMG fragment; details: for FP bound fraction (%) 50 μM / FP bound fraction (%) 200 μM: SOX18/DNA binding
SOX18[109] HMG fragment, sequence (P43680 69-177): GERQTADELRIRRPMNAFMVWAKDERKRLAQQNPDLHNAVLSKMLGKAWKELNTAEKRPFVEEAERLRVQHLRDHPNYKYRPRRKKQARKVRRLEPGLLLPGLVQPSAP
Method: Mouse SOX HMG fragments. The HMG domains of mouse SOX2 (Group B), SOX11 (Group C), SOX6 (Group D), SOX9 (Group E), SOX18 (Group F) and SOX15 (Group G) were BP cloned from cDNA templates (IMAGE cDNA clone IDs: Sox18: 3967084; Sox9: 5354229; Sox4: 6822618) into a pDONRTM221 pENTRY vector, sequenced and recombined into a pETG20A or a pHisMBP expression plasmid using Gateway®LR Technology (Ng et al., 2012). Constructs were transformed into Escherichia coli BL21(DE3) cells (Luria-Bertani, 100 μg/ml Ampicillin).
The DNA-binding competition assay was performed in black 384-well plates, with mouse full length SOX18, or SOX-HMG fragments. All experiments were performed using a fluorescently-labelled Prox1-DNA element. Controls consisted of free labelled DNA (low FP milli-Polarization index, mP), labelled DNA in presence of protein (negative control, high mP), and labelled DNA and protein in presence of competing excess of unlabelled DNA (positive control, low mP)
The DNA-binding competition assay was performed in 25 uL, in black 384-well plates, using either 30 mM HEPES (N-2-Hydroxyethylpiperazine-N′-2-Ethanesulfonic Acid) (pH 7.5, with 100 mM KCl, 40 mM NaCl, 10 mM NH4OAc, […], 2 mM MgCl2, 0.5 mM EDTA, 0.01% NP-40) for mouse full length SOX18, or Tris-NaCl (10 mM Tris pH 8.0 and 100 mM NaCl) for SOX-HMG fragments. All experiments were performed using a 40 bp double-stranded Prox1-DNA element with 5′ fluorescein amidite (FAM) label (Sigma Proligo or InVitrogen). Optimum binding levels were obtained at 200 nM of mouse full length SOX18 and 60 nM of SOX-HMG fragment, in presence of 5 nM labelled DNA. Controls consisted of free labelled DNA (low FP milli-Polarization index, mP), labelled DNA in presence of protein (negative control, high mP), and labelled DNA and protein in presence of 400 time competing excess of unlabelled DNA (positive control, low mP). Depending on compound, final DMSO concentrations ranged from 2 to 3.33% v/v. After mixing protein, DNA probe and compound, plates were sealed and briskly agitated in the dark for 5 minutes at room temperature, 10 minutes at 37° C., and 30 minutes at room temperature, before reading fluorescence polarization on a Tecan M1000Pro (λexc=485 nm, λem=525 nm). All experiments were performed in triplicates.
In order to pinpoint the possible binding site of the small molecules, the FP assays were repeated with a shorter, DNA-binding centred protein fragment. The DNA binding domain of SOX TFs consists of the […] amino acid long High Mobility Group (HMG) box. The 109 amino-acid long SOX18 fragment (SOX18[109]) corresponds to residues 69-177 (numbering by mouse SOX18), which includes the HMG box (residues 78-149) and N- and C-terminal flanking sequences of 9 and 28 amino-acids, respectively.

SOX18-RBPJ interaction = SOX18-RBPJ interaction (Homo sapiens (Human), UniProt P35713); assay: ALPHAScreen SOX18-RBPJ protein-protein interaction; type: binding
SOX18-RBPJ interaction, sequence (P35713 whole entry): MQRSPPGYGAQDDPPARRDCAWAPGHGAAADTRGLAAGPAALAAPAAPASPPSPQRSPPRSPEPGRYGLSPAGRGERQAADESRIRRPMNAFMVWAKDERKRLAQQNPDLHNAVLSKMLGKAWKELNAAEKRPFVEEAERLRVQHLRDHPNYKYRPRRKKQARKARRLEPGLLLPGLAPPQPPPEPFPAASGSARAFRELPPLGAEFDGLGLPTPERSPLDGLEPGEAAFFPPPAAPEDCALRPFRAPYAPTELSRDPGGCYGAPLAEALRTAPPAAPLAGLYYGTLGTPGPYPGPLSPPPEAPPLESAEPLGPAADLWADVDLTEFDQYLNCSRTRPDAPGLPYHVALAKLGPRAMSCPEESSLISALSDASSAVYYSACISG
Source text: Proteins were genetically encoded with enhanced GFP (GFP), mCherry and cMyc (myc) tags, and cloned into cell free expression Gateway destination vectors: N-terminal GFP tagged (pCellFree_G03), N-terminal Cherry-cMyc (pCellFree_G07) and C-terminal Cherry-cMyc tagged (pCellFree_G08) (Gagoski et al., 2015). Human RBPJ (BC020780) and MEF2C (BC026341) Open Reading Frames (ORFs) were sourced from the Human ORFeome collection, version 1.1 and 5.1, and the Human Orfeome collaboration OCAA collection (Open Biosystems), as previously described (Sierecki et al., 2013) and cloned at the ARVEC facility, UQ Diamantina Institute. The entry clones pDONOR223 or pENTR201 vectors were exchanged with the ccdB gene in the expression plasmid by LR recombination (Life Technologies, Australia). The full-length human SOX18 gene was synthesized and the transfer to vectors was realized using Gateway PCR cloning. Translation competent Leishmania tarentolae extract (LTE) was prepared as previously described (Kovtun et al., 2011, Mureev et al., 2009). Protein pairs were co-expressed by adding 30 nM of GFP template plasmid and 60 nM of Cherry template plasmid to LTE and incubating for 3 hours at 27° C.
ALPHAScreen was performed as previously described (Sierecki et al., 2014, Sierecki et al., 2013). […] Percentage of interaction was calculated as: (I_cpd/I_DMSO)×100 from 3 independent experiments.
ALPHAScreen was performed as previously described (Sierecki et al., 2014, Sierecki et al., 2013), using the cMyc detection kit and Proxiplate-384 Plus plates (PerkinElmer). The LTE lysate co-expressing the proteins of interest was diluted in buffer A (25 mM HEPES, 50 mM NaCl). For the assay, 12.5 μL (0.4 μg) of Anti-cMyc coated Acceptor Beads in buffer B (25 mM HEPES, 50 mM NaCl, 0.001% NP40, 0.001% casein) were aliquoted into each well. This was followed by the addition of 2 μL of diluted sample, at different concentration, and 2 μL of biotin labeled GFP-Nanotrap in buffer A. The plates were incubated for 45 min at room temperature, then adding 2 μL (0.4 μg) of streptavidin-coated Donor Beads diluted in buffer A, and incubation in the dark for 45 min at room temperature. The ALPHAScreen signal was measured on an Envision Plate Reader (PerkinElmer), using manufacturer's recommended settings (λexc=680/30 nm for 0.18 s, λem=570/100 nm after 37 ms). The resulting bell-shaped curve is an indication of a positive interaction, while a flat line reflects a lack of interaction between the proteins. The measurement of each protein pair was repeated in triplicate.
I is the highest signal level (top of the hook effect curve) and Ineg is the lowest (background) signal level. The signals were normalized to the Iref signal obtained for the strongest interaction. […] Percentage of interaction was calculated as: […]
The ALPHA-Screen Assay was performed as previously described (Sierecki et al. 2014), using the cMyc detection kit and Proxiplate-384 Plus plates (PerkinElmer). A serial dilution of each sample was measured. The LTE lysate co-expressing the proteins of interest was diluted in buffer A (25 mM HEPES, 50 mM NaCl). For the assay, 12.5 μL (0.4 μg) of Anti-cMyc coated Acceptor Beads in buffer B (25 mM HEPES, 50 mM NaCl, 0.001% NP40, casein) were aliquoted into each well. This was followed by the addition of 2 μL of diluted sample and 2 μL of biotin labeled GFP-Nanotrap in buffer A. The plate was incubated for 45 min at RT. Afterward, 2 μL (0.4 μg) of Streptavidin coated Donor Beads diluted in buffer A, were added, followed by incubation in the dark for 45 min at RT. The ALPHA-Screen signal was obtained on an Envision Multilabel Plate Reader (PerkinElmer), using the manufacturer's recommended settings (excitation: 680/30 nm for 0.18 s, emission: 570/100 nm after 37 ms). The resulting bell-shaped curve is an indication of a positive interaction, while a flat line reflects a lack of interaction between the proteins. […]

HEK293 = assay: Cytotoxicity assay (Alamar blue), HEK293; type: cell-based; details: HEK293, 24 h
Method: Cell toxicity was determined using Alamar blue, as previously described (McMillian et al., 2002). COS-7 cells were seeded as 7000 cells per well in black wall clear bottom 96-well plates in DMEM medium (Life Technologies Australia) with 10% FBS. HepG2 and HEK293 cell lines, from ATCC, were seeded as 5000 cells per well in black wall clear bottom 384-well cell culture plates in DMEM with 1% FBS. Cells were cultured for 24 h at 37° C., 5% CO2. A serial dilution of compounds was added, with a final DMSO concentration adjusted to 0.5% v/v. Cells were incubated for another 24 h. 1 Triton X-100 was used as negative control, and 0.5% DMSO as positive control. 5 μM Alamar blue was added to each well and fluorescence was measured (λexc=560 nm, λem=590 nm) after 2 h incubation at 37° C. Data were analysed using Prism software.

HepG2 = assay: Cytotoxicity assay (Alamar blue), HepG2; type: cell-based; details: HepG2, 24 h
[1] = tested on: SOX binding site consensus DNA; assay: Direct DNA-binding assay (SPR), consensus DNA; details: biotinylated double-strand DNA on streptavidin chip
Method: (§1) Compounds were tested at a 1% v/v DMSO in HBS-EP buffer (10 mM HEPES, 150 mM NaCl, 3 mM EDTA, 0.005% v/v polysorbate 20, pH 7.4). The same buffer supplemented with 1% v/v DMSO was used as a mobile phase. DNA minor groove binder DAPI (4′,6-diamidino-2-phenylindole), DNA intercalator and minor groove binder actinomycin D, and DNA intercalator ethidium bromide were used as positive controls. Biotinylated (one tag per probe) double strand DNA probes were prepared using a standard annealing routine (5 min at 100° C., room temperature overnight and stored at −20° C.) of single strand anti-parallel DNA Probes purchased from Geneworks and were immobilized on CM5-SA streptavidin chips as per manufacturer's recommendations. […] All sample and control cycles were performed in triplicate. DMSO calibration was performed as per manufacturer's recommendations. After each injection, an extra flow system wash was performed with 50% v/v DMSO to avoid carryover. Experiments were run on a Biacore T200 (GE Healthcare, USA), with one flow cell kept as a reference.
(§2) From a molecular viewpoint, an inhibitor of SOX18-DNA binding could act either by interacting directly with the DNA, or the protein, or at the interface between protein and DNA. Binding of small molecules directly to the DNA, even though reported for other TFs (Leung et al., 2013), has the potential for unspecific DNA binding, leading to possible genotoxicity, mutagenicity, or carcinogenicity. For this reason, we developed a direct binding assays to determine whether the active compounds interact directly with DNA or protein. A surface plasmon resonance-based method was developed to analyse the binding of small molecules to biotinylated double stranded DNA immobilized on the surface of a streptavidin chip. The method measures the rate of binding (kon), dissociation (koff) and binding constant (KD), and was used to measure the binding to two different DNA sequences: SOX binding site consensus DNA, and scrambled DNA. Intercalating agents ethidium bromide and Actinomycin D, and the minor groove-binding agent 4′,6-diamino-2-phenylindole (DAPI) were used as positive controls for unselective DNA binding.

scrambled DNA = assay: Direct DNA-binding assay (SPR), scrambled DNA; details: biotinylated double-strand DNA on streptavidin chip
Method: as §1, §2

Structure (SMILES) | FP bound fraction (%) 50 μM (SOX18[109] HMG fragment) [%] | FP bound fraction (%) 200 μM (SOX18[109] HMG fragment) [%] | SOX18-DNA binding inhibition (FP, words) (SOX18[109] HMG fragment; SAR library, SOX18[109]) | effect on SOX18-RBPJ interaction (PPI) (SOX18-RBPJ interaction; ALPHAScreen) | CC50 (HEK293) [µM] | CC50 (HepG2) [µM] | binding to consensus DNA (SPR) [1] | binding to scrambled DNA (SPR) (scrambled DNA) | SOX18-RBPJ protein-protein binding inhibition at 5 μM (SOX18-RBPJ interaction; 5 μM)
O=C(O)c1c(O)cccc1C=Cc1ccc2ccccc2c1 (mixture of isomers) [Sm20, (E/Z)-2-hydroxy-6-(2(naphthalen-2-yl)vinyl)benzoic acid] | 10.3 ± 4.1 | 11.9 ± 8.5 | displayed SOX18-DNA binding inhibiting activity; also recorded: inhibit both DNA and PPI | inhibit both DNA and PPI | 97.1 | 71.3 | – | – | –
Cc1c2oc3c(C)ccc(C(=O)N[C@@H]4C(=O)N[C@H](C(C)C)C(=O)N5CCC[C@H]5C(=O)N(C)CC(=O)N(C)[C@@H](C(C)C)C(=O)O[C@@H]4C)c3nc-2c(C(=O)N[C@@H]2C(=O)N[C@H](C(C)C)C(=O)N3CCC[C@H]3C(=O)N(C)CC(=O)N(C)[C@@H](C(C)C)C(=O)O[C@@H]2C)c(N)c1=O [actinomycin D] (I: T[dV]P[Sar][NMeV] / II: T[dV]P[Sar][NMeV]; ester I:1-I:C, II:1-II:C; linker I:N-II:N via Actinocin(9to1)) | – | – | – | – | – | – | bind to DNA | bind to DNA | –
N=C(N)c1ccc(-c2cc3ccc(C(=N)N)cc3[nH]2)cc1 [DAPI, 4′,6-diamidino-2-phenylindole] | – | – | – | – | – | – | bind to DNA | bind to DNA | –
COc1cccc(C=Cc2ccc3ccccc3c2)c1C(=O)O (mixture of isomers) [Sm19, (E/Z)-2-methoxy-6-(2-(naphthalen-2-yl)vinyl)benzoic acid] | 99.2 ± 6.8 | 107.6 ± 4.5 | – | – | > 100 | > 100 | – | – | highly active
CC[n+]1c(-c2ccccc2)c2cc(N)ccc2c2ccc(N)cc21 [ethidium bromide] | – | – | – | – | – | – | bind to DNA | bind to DNA | –
